Assay results as given in publication PMC3588010, “Effect of Human Flavin-Containing Monooxygenase 3 Polymorphism on the Metabolism of Aurora Kinase Inhibitors” (International Journal of Molecular Sciences, 2013).

How the values were obtained:
V257M hFMO3 = biological target: T1, V257M hFMO3 (Homo sapiens, UniProt P31513, V257M); test: N-oxygenation kinetics with purified V257M polymorphic variant of hFMO3 (LC-MS); assay type: in vitro ADME
T1 construct: made in house; host or cells: E. coli JM109 (vector pJL2)
T1 sequence (P31513 1-532 V257M): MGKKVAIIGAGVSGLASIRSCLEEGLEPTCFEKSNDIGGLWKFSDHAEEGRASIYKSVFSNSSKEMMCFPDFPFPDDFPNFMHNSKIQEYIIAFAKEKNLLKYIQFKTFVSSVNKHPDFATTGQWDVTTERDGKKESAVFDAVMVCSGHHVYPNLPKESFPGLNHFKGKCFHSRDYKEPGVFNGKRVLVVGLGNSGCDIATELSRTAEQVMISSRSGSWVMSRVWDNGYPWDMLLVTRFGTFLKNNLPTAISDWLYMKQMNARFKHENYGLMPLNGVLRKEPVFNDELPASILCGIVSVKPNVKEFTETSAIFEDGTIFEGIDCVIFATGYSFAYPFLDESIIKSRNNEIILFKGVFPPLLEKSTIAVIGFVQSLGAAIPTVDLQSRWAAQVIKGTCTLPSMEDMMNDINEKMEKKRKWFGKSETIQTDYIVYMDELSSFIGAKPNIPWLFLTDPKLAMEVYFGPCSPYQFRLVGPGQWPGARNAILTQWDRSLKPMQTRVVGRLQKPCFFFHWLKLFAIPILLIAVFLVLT
Experimental: (§1) Enzymatic reactions were carried out with the purified WT and V257M polymorphic variant in the presence of NADPH and increasing amounts of each substrate as reported in the experimental section. […] The kcat and Km values for V257M were approximately half of that of the wild-type (Figure 3A,B) and the kcat for the wild-type enzyme was at least twice as much of the kcat for V257M.
(§2) The enzyme and NADPH were mixed first and the reaction was initiated by the addition of substrate, preventing thermal degradation of the enzyme. […] The incubations were terminated by the addition of 0.10 mL of ice-cold methanol and 150 μL verapamil as internal standard (IS).
(§3) Prior to LC-MS analysis the reaction mixtures were filtered through a Microcon centrifugal membrane with 3 kDa cutoff (Millipore, Billercia, MA, USA). Substrates and their metabolites were separated using Agilent 1200 HPLC (Agilent Technologies Inc., Santa Clara, CA, USA) equipped with a narrow bore reversed-phase column Zorbax Eclipse XDB-C18, 2.1 × 150 mm, 3.5 μm (Agilent Technologies, Santa Clara, CA, USA) and using a binary solvent system composed of double distilled water with 0.01% formic acid (A), and acetonitrile (ACN) with 0.1% formic acid (B) at flow rate of 0.2 mL min^−1. The initial mobile phase was composed of 20% of solvent B and it was increased to 70% over a period of 3 min and kept 4 min for isocratic separations of substrate, metabolite and internal standard (IS). Finally, the organic solvent was increased to 100% in 30 s for washing the column. Before follower injection, initial mobile phase was re-established for 10 min.
(§4) For quantitative purpose, standards and samples were analysed by LC-ESI-MS/MS in MRM mode using the above-indicated parameters. […] Spectral data were processed using data analysis software of 6300 Series Ion Trap LC/MS 4.0 (Bruker Daltonik GmbH, Bremen, Germany). Metabolite formation was quantified by comparing peak area ratios (metabolite/internal standard) of four data sets of incubations for each Michaelis-Menten curve to ratios obtained from a standard curve containing known amounts of the […].

wild type hFMO3 = biological target: T2, wild type hFMO3 (Homo sapiens, UniProt P31513); test: N-oxygenation kinetics with purified wild-type hFMO3 (LC-MS); assay type: in vitro ADME
T2 construct: made in house; host or cells: E. coli JM109 (vector pJL2)
T2 sequence (P31513 1-532): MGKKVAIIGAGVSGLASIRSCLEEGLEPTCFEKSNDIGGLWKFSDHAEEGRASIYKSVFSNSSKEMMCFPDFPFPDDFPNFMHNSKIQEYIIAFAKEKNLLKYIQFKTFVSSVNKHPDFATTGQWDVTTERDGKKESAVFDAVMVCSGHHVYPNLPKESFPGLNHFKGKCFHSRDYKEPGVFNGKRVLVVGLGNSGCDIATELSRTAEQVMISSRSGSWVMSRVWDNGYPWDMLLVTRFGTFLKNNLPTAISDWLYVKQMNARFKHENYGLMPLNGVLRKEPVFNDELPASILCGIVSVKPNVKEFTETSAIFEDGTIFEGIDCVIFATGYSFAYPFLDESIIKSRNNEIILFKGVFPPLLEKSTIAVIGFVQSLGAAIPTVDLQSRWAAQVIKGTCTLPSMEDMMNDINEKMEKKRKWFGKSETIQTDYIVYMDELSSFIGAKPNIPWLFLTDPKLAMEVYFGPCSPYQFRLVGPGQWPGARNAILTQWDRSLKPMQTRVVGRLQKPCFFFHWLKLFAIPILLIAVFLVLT
Experimental: as §1, §2, §3, §4

[1] = substrate: Cc1cc(Nc2cc(N3CCN(C)CC3)nc(Sc3ccc(NC(=O)C4CC4)cc3)n2)[nH]n1; test: as above; assay type: in vitro ADME, human; conditions: other: WT hFMO3, N-oxide formation, 0.17 μM enzyme, 0.5 mM NADPH, pH 7.4, 37 °C
Experimental: as §1, §2, §3, §4

[2] = substrate: CO[C@@H](C(=O)N1Cc2n[nH]c(NC(=O)c3ccc(N4CCN(C)CC4)cc3)c2C1)c1ccccc1; test: as above; assay type: in vitro ADME, human; conditions: other: WT hFMO3, N-oxide formation, 0.17 μM enzyme, 0.5 mM NADPH, pH 7.4, 37 °C
Experimental: as §1, §2, §3, §4

[3] = substrate: Cc1cc(Nc2cc(N3CCN(C)CC3)nc(Sc3ccc(NC(=O)C4CC4)cc3)n2)[nH]n1; test: N-oxygenation kinetics with purified V257M polymorphic variant of hFMO3 (LC-MS); assay type: in vitro ADME, human; conditions: other: V257M hFMO3, N-oxide formation, 0.17 μM enzyme, 0.5 mM NADPH, pH 7.4, 37 °C
Experimental: as §1, §2, §3, §4

[4] = substrate: CO[C@@H](C(=O)N1Cc2n[nH]c(NC(=O)c3ccc(N4CCN(C)CC4)cc3)c2C1)c1ccccc1; test: as above; assay type: in vitro ADME, human; conditions: other: V257M hFMO3, N-oxide formation, 0.17 μM enzyme, 0.5 mM NADPH, pH 7.4, 37 °C
Experimental: as §1, §2, §3, §4

[5] = V257M hFMO3, N-oxide formation, pH 7.4, 37 °C
[6] = V257M hFMO3, N-oxide formation, values in text
[7] = WT hFMO3, N-oxide formation, pH 7.4, 37 °C

Molecule: CO[C@@H](C(=O)N1Cc2n[nH]c(NC(=O)c3ccc(N4CCN(C)CC4)cc3)c2C1)c1ccccc1 [Danusertib]
- Vmax (V257M hFMO3; [5]): 0.18 ± 0.01 nmol/min/mg FMO3
- kcat (V257M hFMO3; [6]): 0.0533 s⁻¹
- Vmax (V257M hFMO3; V257M, values in text): 0.18 nmol min^−1 mg FMO3
- Vmax (wild type hFMO3; [7]): 0.57 ± 0.03 nmol/min/mg FMO3
- kcat (wild type hFMO3; [7]): 0.165 s⁻¹
- Vmax (wild type hFMO3; wild-type enzyme, values in text): 0.57 nmol min^−1 mg FMO3

Molecule: Cc1cc(Nc2cc(N3CCN(C)CC3)nc(Sc3ccc(NC(=O)C4CC4)cc3)n2)[nH]n1 [Tozasertib]
- Vmax (V257M hFMO3; [5]): 0.25 ± 0.01 nmol/min/mg FMO3
- kcat (V257M hFMO3; [6]): 0.0717 s⁻¹
- Vmax (V257M hFMO3; V257M hFMO3, values in text): 248 pmol/min/mg FMO3
- Vmax (wild type hFMO3; [7]): 0.54 ± 0.02 nmol/min/mg FMO3
- kcat (wild type hFMO3; [7]): 0.155 s⁻¹
- Vmax (wild type hFMO3; wild type hFMO3, values in text): 536 pmol/min/mg FMO3

B1: wild type hFMO3 (Homo sapiens) (protein)
chain: MGKKVAIIGAGVSGLASIRSCLEEGLEPTCFEKSNDIGGLWKFSDHAEEGRASIYKSVFSNSSKEMMCFPDFPFPDDFPNFMHNSKIQEYIIAFAKEKNLLKYIQFKTFVSSVNKHPDFATTGQWDVTTERDGKKESAVFDAVMVCSGHHVYPNLPKESFPGLNHFKGKCFHSRDYKEPGVFNGKRVLVVGLGNSGCDIATELSRTAEQVMISSRSGSWVMSRVWDNGYPWDMLLVTRFGTFLKNNLPTAISDWLYVKQMNARFKHENYGLMPLNGVLRKEPVFNDELPASILCGIVSVKPNVKEFTETSAIFEDGTIFEGIDCVIFATGYSFAYPFLDESIIKSRNNEIILFKGVFPPLLEKSTIAVIGFVQSLGAAIPTVDLQSRWAAQVIKGTCTLPSMEDMMNDINEKMEKKRKWFGKSETIQTDYIVYMDELSSFIGAKPNIPWLFLTDPKLAMEVYFGPCSPYQFRLVGPGQWPGARNAILTQWDRSLKPMQTRVVGRLQKPCFFFHWLKLFAIPILLIAVFLVLT
notes: made in house; host or cells: E. coli JM109 (vector pJL2)
- Km [1]: 23.8 ± 3.4 µM
- kcat [1]: 0.155 ± 0.005 s⁻¹
- kcat/Km [1]: 6500 ± 1000 M⁻¹ s⁻¹
- Km [2]: 57.3 ± 8.3 µM
- kcat [2]: 0.165 ± 0.01 s⁻¹
- kcat/Km [2]: 2830 ± 500 M⁻¹ s⁻¹

B2: V257M hFMO3 (Homo sapiens; V257M) (protein)
chain: MGKKVAIIGAGVSGLASIRSCLEEGLEPTCFEKSNDIGGLWKFSDHAEEGRASIYKSVFSNSSKEMMCFPDFPFPDDFPNFMHNSKIQEYIIAFAKEKNLLKYIQFKTFVSSVNKHPDFATTGQWDVTTERDGKKESAVFDAVMVCSGHHVYPNLPKESFPGLNHFKGKCFHSRDYKEPGVFNGKRVLVVGLGNSGCDIATELSRTAEQVMISSRSGSWVMSRVWDNGYPWDMLLVTRFGTFLKNNLPTAISDWLYMKQMNARFKHENYGLMPLNGVLRKEPVFNDELPASILCGIVSVKPNVKEFTETSAIFEDGTIFEGIDCVIFATGYSFAYPFLDESIIKSRNNEIILFKGVFPPLLEKSTIAVIGFVQSLGAAIPTVDLQSRWAAQVIKGTCTLPSMEDMMNDINEKMEKKRKWFGKSETIQTDYIVYMDELSSFIGAKPNIPWLFLTDPKLAMEVYFGPCSPYQFRLVGPGQWPGARNAILTQWDRSLKPMQTRVVGRLQKPCFFFHWLKLFAIPILLIAVFLVLT
notes: as for B1
- Km [3]: 12.9 ± 1.3 µM
- kcat [3]: 0.0717 s⁻¹
- kcat/Km [3]: 5500 ± 667 M⁻¹ s⁻¹
- Km [4]: 60.1 ± 11.4 µM
- kcat [4]: 0.0533 s⁻¹
- kcat/Km [4]: 833 ± 167 M⁻¹ s⁻¹
